According to US20250163053A1, “CRYSTALLINE FORM OF NITROGEN-CONTAINING HETEROCYCLIC COMPOUND, PREPARATION METHOD THEREFOR AND USE THEREOF” (SHANGHAI PHARMACEUTICALS HOLDING CO., LTD., priority 2022, published 2025):
Read-outs that look alike come from different tables or passages of the source. Each block holds one molecule with its values, some of them ahead of it.

Tests used:
[1] = Absorption in rats after intragastric administration of different crystal forms (plasma PK, LC/MS/MS); type: in vivo; settings: 8 mg/kg
Protocol: SD rats were intragastrically administered samples of different crystal forms. Blood samples (0.4 mL) were respectively collected from the venous plexus of the rat's fundus oculi at various time points: before administration and at 5, 15, 30, 60, 90, 120, 240, 360, 480, 600, and 1440 minutes after administration. The blood samples were centrifuged at 8000 rpm for 5 minutes to separate the upper plasma. 50 μL of plasma sample was added with 300 μL of acetonitrile containing an internal standard (Propranolol, 25 ng/mL) to precipitate proteins. The mixture was vortexed for 10 minutes, and centrifuged at 6000 g and 4° C. for 20 minutes. The supernatant (20 μL) was taken and diluted with 80 μL of ultrapure water. After centrifugation, 80 μL of the supernatant was taken for injection into a 96-well plate. The plasma drug concentration was determined using LC/MS/MS, and the corresponding pharmacokinetic parameters were calculated, as shown in Table 17.

ErbB2 kinase (HER2) = target: T1, ErbB2 kinase (HER2) (Homo sapiens, UniProt P04626); assay: EGFR/ErbB2 enzymatic assay (HTRF kinEASE-TK), ErbB2; type: biochemical; settings: ErbB2 kinase 0.06 ng/μL, ATP 4 μM
T1 construct: purchased Sigma E2645-500UN
Protocol: (§1) First, a 1× reaction buffer required for the kinase was prepared by diluting the 5× Enzymatic Buffer (HEPES 20 mM, pH 7.0, NaN3 0.1%, BSA 0.05%, sodium orthovanadate 0.5 mM) from the HTRF kinEASE-TK kit with deionized water to one-fold. At the same time, 50 nM Supplement Enzymatic Buffer (SEB reagent), 1 mM MnCl2, 5 mM MgCl2, and 1 mM DTT were added. Next, a 5× compound solution was prepared. […] This initial concentration was then used as the first concentration, and further diluted with DMSO in a 3-fold serial dilution to dilute a total of 10 concentrations. Subsequently, 1 μL of the serially diluted solution was added to 19 μL of 1× reaction buffer to prepare the 5× compound solution for later use. Then, 2 μL of the 5× compound solution was transferred from the 96-well plate into a 384-well plate. In the no-compound control wells, 2 μL of a mixture of 1 μL DMSO and 19 μL 1× reaction buffer was added. In the blank control wells, 2 μL of 250 mM EDTA was added. In the third step, the enzyme reaction stage, the kinase, substrate (TK Substrate-biotin), and ATP were prepared into a 2.5× enzyme/substrate mixture and a 2.5× ATP solution using the 1× reaction buffer. […] Data were measured on EnVision™, with a 337 nm laser used as the excitation light. The RFU was measured at 665 nm and 620 nm, and RFU 665 nM/RFU 620 nM×10000 was used as the final data for analysis.

EGFR kinase = target: T2, EGFR kinase (Homo sapiens, UniProt P00533); assay: EGFR/ErbB2 enzymatic assay (HTRF kinEASE-TK), EGFR; type: biochemical; settings: EGFR kinase 0.06 units/μL, ATP 1.65 μM
T2 construct: purchased Carna 08-016
Protocol: as §1

[2] = Physicochemical stability of crystal form C (UPLC purity, XRPD)
Protocol: The solid samples after being placed under different conditions were respectively tested for purity by UPLC to evaluate chemical stability, and the crystal form was tested by XRPD to evaluate physical stability. […] Additionally, no significant degradation was observed after one day at 60° C. or one week at 25° C./60% RH and 40° C./75% RH (details of purity changes are provided in Table 16).

T1 sequence (P04626 23-1255): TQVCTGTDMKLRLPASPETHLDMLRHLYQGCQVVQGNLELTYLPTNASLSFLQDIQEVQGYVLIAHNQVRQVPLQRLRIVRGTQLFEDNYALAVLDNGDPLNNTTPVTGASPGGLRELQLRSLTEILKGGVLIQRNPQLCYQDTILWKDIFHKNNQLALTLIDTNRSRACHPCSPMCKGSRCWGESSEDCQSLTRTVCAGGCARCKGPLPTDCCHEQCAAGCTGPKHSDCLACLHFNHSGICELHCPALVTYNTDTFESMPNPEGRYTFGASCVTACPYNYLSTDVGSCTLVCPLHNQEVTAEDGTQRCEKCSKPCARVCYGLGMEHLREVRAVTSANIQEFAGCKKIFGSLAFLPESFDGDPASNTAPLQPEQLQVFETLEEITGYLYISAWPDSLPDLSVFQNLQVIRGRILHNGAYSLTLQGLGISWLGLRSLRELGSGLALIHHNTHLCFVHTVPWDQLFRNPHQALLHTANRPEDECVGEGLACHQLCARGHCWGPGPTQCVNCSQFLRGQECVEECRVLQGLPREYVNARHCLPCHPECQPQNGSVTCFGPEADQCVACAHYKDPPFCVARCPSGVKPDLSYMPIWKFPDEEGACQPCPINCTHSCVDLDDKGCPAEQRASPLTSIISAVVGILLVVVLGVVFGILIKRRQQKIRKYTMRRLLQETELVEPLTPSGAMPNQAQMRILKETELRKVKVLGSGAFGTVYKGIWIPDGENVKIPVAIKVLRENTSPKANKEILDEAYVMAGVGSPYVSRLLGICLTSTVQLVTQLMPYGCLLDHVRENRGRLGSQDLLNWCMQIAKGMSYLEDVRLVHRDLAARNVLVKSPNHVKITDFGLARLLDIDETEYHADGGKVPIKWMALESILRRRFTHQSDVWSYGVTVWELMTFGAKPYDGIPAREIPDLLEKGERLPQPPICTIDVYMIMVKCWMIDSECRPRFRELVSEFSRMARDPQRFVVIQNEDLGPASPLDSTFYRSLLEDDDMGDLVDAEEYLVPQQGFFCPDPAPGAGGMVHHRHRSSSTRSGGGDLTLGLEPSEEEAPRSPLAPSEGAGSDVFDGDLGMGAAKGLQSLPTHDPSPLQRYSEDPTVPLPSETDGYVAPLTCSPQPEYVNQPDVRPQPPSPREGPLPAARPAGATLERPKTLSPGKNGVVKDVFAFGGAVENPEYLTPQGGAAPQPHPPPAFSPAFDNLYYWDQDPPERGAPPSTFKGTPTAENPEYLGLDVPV
T2 sequence (P00533 25-1210): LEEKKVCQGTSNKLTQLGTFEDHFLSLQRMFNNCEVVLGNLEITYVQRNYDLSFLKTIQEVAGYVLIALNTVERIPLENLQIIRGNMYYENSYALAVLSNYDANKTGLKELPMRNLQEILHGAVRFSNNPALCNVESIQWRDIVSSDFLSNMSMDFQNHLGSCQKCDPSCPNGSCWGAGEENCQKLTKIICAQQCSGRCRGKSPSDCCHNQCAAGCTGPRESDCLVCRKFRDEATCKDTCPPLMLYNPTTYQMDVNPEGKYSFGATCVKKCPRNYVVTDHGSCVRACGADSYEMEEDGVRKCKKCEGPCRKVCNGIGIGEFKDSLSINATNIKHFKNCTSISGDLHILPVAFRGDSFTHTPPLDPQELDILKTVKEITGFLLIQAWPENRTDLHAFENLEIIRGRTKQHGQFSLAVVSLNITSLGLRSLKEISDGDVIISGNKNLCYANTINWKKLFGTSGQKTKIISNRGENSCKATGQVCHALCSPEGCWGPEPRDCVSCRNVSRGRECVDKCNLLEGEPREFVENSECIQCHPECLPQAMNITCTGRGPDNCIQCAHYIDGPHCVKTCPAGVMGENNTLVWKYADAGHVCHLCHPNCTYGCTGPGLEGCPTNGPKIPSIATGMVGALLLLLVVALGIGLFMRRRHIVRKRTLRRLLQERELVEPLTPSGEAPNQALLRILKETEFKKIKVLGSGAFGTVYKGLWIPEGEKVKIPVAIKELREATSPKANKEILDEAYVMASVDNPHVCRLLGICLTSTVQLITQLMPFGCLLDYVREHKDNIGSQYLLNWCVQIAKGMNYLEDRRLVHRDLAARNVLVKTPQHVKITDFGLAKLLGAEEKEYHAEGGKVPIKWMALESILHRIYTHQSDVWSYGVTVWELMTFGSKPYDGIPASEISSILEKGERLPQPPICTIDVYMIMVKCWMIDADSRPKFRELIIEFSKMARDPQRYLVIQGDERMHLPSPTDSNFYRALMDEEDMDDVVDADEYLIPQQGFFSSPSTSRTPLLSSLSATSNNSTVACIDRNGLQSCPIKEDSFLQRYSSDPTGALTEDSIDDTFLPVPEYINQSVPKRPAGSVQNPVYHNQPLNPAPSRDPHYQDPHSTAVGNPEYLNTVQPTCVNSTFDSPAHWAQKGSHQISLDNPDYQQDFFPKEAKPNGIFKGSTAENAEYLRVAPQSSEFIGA

SMILES: CCOc1cc2ncnc(Nc3ccc(Oc4ccn5ncnc5c4)c(C)c3)c2cc1NC(=O)/C(F)=C/[C@H]1CCCN1C [Amorphous form, (R,Z)-N-(4-((4-([1,2,4]triazolo[1,5-α]pyridin-7-yloxy)-3-methylphenyl)amino)-7-ethoxyquinazolin-6-yl)-2-fluoro-3-(1-methylpyrrolidin-2-yl)acrylamide]
AUCextra ([1]; SD rats): 0.758 (h)*(ng/mL) | AUClast ([1]; SD rats): 6536 (h)*(ng/mL) | AUCtot ([1]; SD rats): 6586 (h)*(ng/mL) | Cmax ([1]; SD rats): 800 ng/mL | Tmax ([1]; SD rats): 6.00 h | half-life ([1]; SD, rat, plasma, po): 3.03 h | MRT ([1]; SD, rat, plasma, po, read-out: MRT): 6.52 h

SMILES: CCOc1cc2ncnc(Nc3ccc(Oc4ccn5ncnc5c4)c(C)c3)c2cc1NC(=O)/C(F)=C/[C@H]1CCCN1C [Crystal form A, (R,Z)-N-(4-((4-([1,2,4]triazolo[1,5-α]pyridin-7-yloxy)-3-methylphenyl)amino)-7-ethoxyquinazolin-6-yl)-2-fluoro-3-(1-methylpyrrolidin-2-yl)acrylamide]
AUCextra ([1]; SD rats): 0.288 (h)*(ng/mL) | AUClast ([1]; SD rats): 4789 (h)*(ng/mL) | AUCtot ([1]; SD rats): 4802 (h)*(ng/mL) | Cmax ([1]; SD rats): 753 ng/mL | MRT ([1]; SD rats): 4.74 h | Tmax ([1]; SD rats): 2.00 h | t1/2 ([1]; SD rats): 2.74 h

SMILES: CCOc1cc2ncnc(Nc3ccc(Oc4ccn5ncnc5c4)c(C)c3)c2cc1NC(=O)/C(F)=C/[C@H]1CCCN1C [Crystal form B, (R,Z)-N-(4-((4-([1,2,4]triazolo[1,5-α]pyridin-7-yloxy)-3-methylphenyl)amino)-7-ethoxyquinazolin-6-yl)-2-fluoro-3-(1-methylpyrrolidin-2-yl)acrylamide]
AUCextra ([1]; SD rats): 1.01 (h)*(ng/mL) | AUClast ([1]; SD rats): 5904 (h)*(ng/mL) | AUCtot ([1]; SD rats): 5965 (h)*(ng/mL) | Cmax ([1]; SD rats): 599 ng/mL | MRT ([1]; SD rats): 6.07 h | Tmax ([1]; SD rats): 6.00 h | t1/2 ([1]; SD rats): 3.34 h

More lines, now with the values ahead:

AUCextra ([1]; SD rats): 0.451 (h)*(ng/mL) | AUClast ([1]; SD rats): 6863 (h)*(ng/mL) | AUCtot ([1]; SD rats): 6894 (h)*(ng/mL) | Cmax ([1]; SD rats): 1165 ng/mL | MRT ([1]; SD rats): 4.63 h | Tmax ([1]; SD rats): 2.00 h | t1/2 ([1]; SD rats): 3.04 h | IC50 (ErbB2 kinase (HER2)): 0.26 nM | IC50 (EGFR kinase): 1.45 nM | Stability sample purity ([2]; 25° C./60% RH, 1 week, open): 99.29 area % | Peak at RRT 0.63 ([2]; 25° C./60% RH, one week): 0.18% | Peak at RRT 0.67 ([2]; 25° C./60% RH, one week): 0.18% | Peak at RRT 0.95 ([2]; 25° C./60% RH, one week): 0.08% | Peak at RRT 1.00 ([2]; 25° C./60% RH, one week): 99.29% | Peak at RRT 1.03 ([2]; 25° C./60% RH, one week): 0.12% | Peak at RRT 1.08 ([2]; 25° C./60% RH, one week): 0.15% | Stability sample purity ([2]; 40° C./75% RH, 1 week, open): 99.29 area % | Peak at RRT 0.63 ([2]; 40° C./75% RH, one week): 0.18% | Peak at RRT 0.67 ([2]; 40° C./75% RH, one week): 0.18% | Peak at RRT 0.95 ([2]; 40° C./75% RH, one week): 0.08% | Peak at RRT 1.00 ([2]; 40° C./75% RH, one week): 99.29% | Peak at RRT 1.03 ([2]; 40° C./75% RH, one week): 0.12% | Peak at RRT 1.08 ([2]; 40° C./75% RH, one week): 0.15% | Stability sample purity ([2]; 60° C., 24 hours, sealed): 99.29 area % | Peak at RRT 0.63 ([2]; 60° C., one day): 0.18% | Peak at RRT 0.67 ([2]; 60° C., one day): 0.18% | Peak at RRT 0.95 ([2]; 60° C., one day): 0.08% | Peak at RRT 1.00 ([2]; 60° C., one day): 99.29% | Peak at RRT 1.03 ([2]; 60° C., one day): 0.12% | Peak at RRT 1.08 ([2]; 60° C., one day): 0.15% | Peak at RRT 0.63 ([2]; Initial sample): 0.18% | Peak at RRT 0.67 ([2]; Initial sample): 0.18% | Peak at RRT 0.95 ([2]; Initial sample): 0.08% | Peak at RRT 1.00 ([2]; Initial sample): 99.31% | Peak at RRT 1.03 ([2]; Initial sample): 0.10% | Peak at RRT 1.08 ([2]; Initial sample): 0.15% | Crystal form change ([2]; XRPD, 60° C. 24 hours, 25° C./60% RH 1 week, 40° C./75% RH 1 week): No | Initial purity ([2]; before storage, UPLC): 99.31 area %
SMILES: CCOc1cc2ncnc(Nc3ccc(Oc4ccn5ncnc5c4)c(C)c3)c2cc1NC(=O)/C(F)=C/[C@H]1CCCN1C [Crystal form C, (R,Z)-N-(4-((4-([1,2,4]triazolo[1,5-α]pyridin-7-yloxy)-3-methylphenyl)amino)-7-ethoxyquinazolin-6-yl)-2-fluoro-3-(1-methylpyrrolidin-2-yl)acrylamide]

AUCextra ([1]; SD rats): 0.169 (h)*(ng/mL) | AUClast ([1]; SD rats): 2870 (h)*(ng/mL) | AUCtot ([1]; SD rats): 2875 (h)*(ng/mL) | Cmax ([1]; SD rats): 489 ng/mL | MRT ([1]; SD rats): 4.59 h | Tmax ([1]; SD rats): 2.00 h | t1/2 ([1]; SD rats): 2.55 h
SMILES: CCOc1cc2ncnc(Nc3ccc(Oc4ccn5ncnc5c4)c(C)c3)c2cc1NC(=O)/C(F)=C/[C@H]1CCCN1C [Crystal form M, (R,Z)-N-(4-((4-([1,2,4]triazolo[1,5-α]pyridin-7-yloxy)-3-methylphenyl)amino)-7-ethoxyquinazolin-6-yl)-2-fluoro-3-(1-methylpyrrolidin-2-yl)acrylamide]
